Measurements taken from US20260263576A1, “DNA VACCINE TARGETING OVEREXPRESSED ANTIGENS IN COLORECTAL CANCER” (UNIVERSITY OF WASHINGTON, priority 2023, published 2026).

Legend:
[1] = tested on: tumors from Apc^Min/+ mice; assay: Immunohistochemistry of tumors (CD8, PD-L1), ApcMin/+ mice; format: in vivo; conditions: naproxen intermittently or continuously, p<0.001
Experimental: Immunohistochemistry. Tumors removed from the intestine were covered with Tissue-Tek O.C.T Compound in a cryomold and stored at −80° C. Frozen blocks were sectioned and fixed with 75% acetone/25% methanol for 5 minutes. The slides were washed thrice with PBS and 10% goat serum was added for 1 hour at room temperature followed by an anti-mouse PD-L1 (abcam; clone: MIH6; 1/100 dilution) or anti-mouse CD8 (AbD Serotec; clone KT15; 1/200 dilution) overnight at 4° C. After washing, the slides were incubated with AlexaFluor 488 anti-rat IgG (abcam; 1:1000 dilution) for 1 hour at room temperature. Positive cells were counted in three 20× microscopic fields and expressed as the mean percent of total cells.

[2] = tested on: tumor infiltrating lymphocytes; assay: Immunophenotyping of tumor infiltrating lymphocytes, AOM-treated mice; format: in vivo
Experimental: (§1) Immunophenotyping. After removing up to 10 polyps in ApcMin/+, and 1-2 polyps in AOM treated mice, remaining tumors were removed from the intestinal tissue with forceps and applied to a 70 μm filter, washed through with flow cytometry buffer (PBS/1% FBS/2 mM EDTA) and red cells lysed. […] Prior to surface staining, cells were stained with Fixable viability dye 450 (eBiosciences; 1:1000) in PBS and then washed in flow cytometry buffer. Intracellular staining was performed using the FOXP3 buffer set (Thermo Fisher Scientific). Antibodies were obtained from BD Bioscience, Biolegend or Thermo Fisher Scientific. […] Analysis was performed on FACS Canto RUO and data analyzed using FlowJo software (BD Biosciences). […] Results are reported as a percentage of total cell number or a percentage of a specific cell population.

Granzyme B = Granzyme B ELISA of ELISPOT supernatant, ApcMin/+ mice; format: in vivo
From the text: (§2) Analysis of peptide-specific T-cell responses. […] Data are reported as pg/ml.

[3] = tested on: tumor infiltrating lymphocytes; assay: Immunophenotyping of tumor infiltrating lymphocytes, ApcMin/+ mice; format: in vivo; conditions: APC^Min/+
Experimental: as §1

[4] = tested on: splenocytes stimulated with the vaccine peptide pool; assay: Antigen-specific IFN-γ ELISPOT of splenocytes, ApcMin/+ mice; format: in vivo; conditions: any regimen of naproxen, adjuvant only
From the text: as §2

human PBMC = assay: Th ratio from IFN-γ and IL-10 ELISPOT, human PBMC screening; format: cell-based
Experimental: Vaccine. The vaccine consisted of the Th1-selective epitopes CDC25B-p132-156, COX2-p76-93, COX2-p276-295, EGFR-p880-895, and p962-976. The Th selective epitopes were determined in human PBMC screening by calculating the ratio of the product of the mean magnitude and percent incidence of response for IFN-γ and IL-10 ELISPOT assays (IFN-γ incidence X magnitude/IL-10 incidence X magnitude). Ratios greater than 7 defined Th1-selective epitopes (See Table 4).

## COc1ccc2cc([C@H](C)C(=O)O)ccc2c1 [naproxen]
[1]
  tumor cell expression of PD-L1: reduced
  tumor infiltrating CD8+ T-cells: increased
[2]; CON naproxen
  % CD4 of CD3+: 61%
  % CD8 of CD3+: 12%
  % CM of CD4+: 6%
  % CM of CD8+: 8%
  % EM of CD4+: 43%
  % EM of CD8+: 52%
  % Foxp3 of CD4: 5%
  % GATA3 of CD4+: 2%
  % MDSC: 6%
  % PD1 of CD4+: 3%
  % PD1 of CD8+: 4%
  % Tbet of CD3: 10%
[2]; INT naproxen
  % CD4 of CD3+: 66%
  % CD8 of CD3+: 11%
  % CM of CD4+: 6%
  % CM of CD8+: 6%
  % EM of CD4+: 48%
  % EM of CD8+: 53%
  % Foxp3 of CD4: 5%
  % GATA3 of CD4+: 3%
  % MDSC: 6%
  % PD1 of CD4+: 4%
  % PD1 of CD8+: 4%
  % Tbet of CD3: 9%
Granzyme B
  Granzyme B levels, in words: did not result in increased
[3]; CON naproxen
  % CD4 of CD3+: 30%
  % CD8 of CD3+: 35%
  % CM of CD4+: 14%
  % CM of CD8+: 4%
  % EM of CD4+: 60%
  % EM of CD8+: 48%
  % Foxp3 of CD4: 4%
  % GATA3 of CD4+: 5%
  % MDSC: 1%
  % PD1 of CD4+: 3%
  % PD1 of CD8+: 7%
  % Tbet of CD3: 9%
[3]; INT naproxen
  % CD4 of CD3+: 14%
  % CD8 of CD3+: 15%
  % CM of CD4+: 18%
  % CM of CD8+: 2%
  % EM of CD4+: 41%
  % EM of CD8+: 44%
  % Foxp3 of CD4: 2%
  % GATA3 of CD4+: 4%
  % MDSC: 4%
  % PD1 of CD4+: 5%
  % PD1 of CD8+: 7%
  % Tbet of CD3: 11%
[4]
  antigen-specific IFN-γ: did not result in increased

## CDC25b-p132-156: peptide IQAASRIIRNEQFAIRRFQSMPVRL (SEQ ID NO: 1)
Human PBMC
  Th ratio (IFN-γ incidence X magnitude/IL-10 incidence X magnitude): 186

## COX2-p276-295: peptide EVFGLVPGLMMYATIWLREH (SEQ ID NO: 3)
Human PBMC
  Th ratio (IFN-γ incidence X magnitude/IL-10 incidence X magnitude): 17

## COX-2-p76-93: peptide YILTHFKGFWNVVNNIPF (SEQ ID NO: 2)
Human PBMC
  Th ratio (IFN-γ incidence X magnitude/IL-10 incidence X magnitude): 7
